# According to patent US11786492B2, “Therapeutic agent for phosphodiesterase inhibition and its related disorders” (Novalead Pharma Inc, priority 2017, dated 2023):
# Columns and labels:
# Human IL-17F = test: IL-17F release from stimulated PBMCs, ELISA; type: cell-based; details: PMA+Ionomycin, 18 hrs
# Description: (§1) Fresh human blood from healthy volunteer was collected in anticoagulant (5 mM) ethylene diamine tetra acetic acid (EDTA) containing tubes. The growth medium used was RPMI-1640 medium (with 3% FBS) and incubated at 37° C. for 60 mins in a 5% CO2 incubator with vehicle used as 1% DMSO. The cell viability was checked at various time points using Alamar blue and fluorescence readings were taken at excitation of 544 nm and emission of 590 nm.
# (§2) PBMCs were stimulated with different stimulators as follows: • a. Cells were exposed to stimulator LPS at 100 ng/mL for 18 hrs to stimulate TNF-α, IL-6, IFN-γ, IL10, IL-1β • b. Cells were exposed to stimulator IFN-γ+LPS at 100 ng/mL+1 μg/mL for 18 hrs to stimulate IL-12 • c. Cells were exposed to stimulator PMA+Ionomycin at 50 ng/mL+1 μg/mL for 18 hrs to stimulate IL-23, IL-22, IL-17A, IL-17F
# (§3) After 18 hrs supernatants were collected and centrifuged to remove any cell debris and aliquots were used for ELISA.
# PDE1A = PDE1A (Homo sapiens, UniProt P54750); test: Fluorescence polarization assay PDE1A; type: biochemical; details: substrate cGMP, Ca-CaM
# Description: (§4) An experiment to check inhibition of various subtypes of the target Phosphodiesterase (PDE) enzyme in in-vitro assay was performed. […] PDE1A, PDE2A, PDE4A, PDE4B, PDE4C, PDE4D, PDE5A, PDE7A, PDE9A, PDE10A.
# Human IL-12 = test: IL-12 release from stimulated PBMCs, ELISA; type: cell-based; details: IFN-γ+LPS, 18 hrs
# Description: as §1, §2, §3
# TNF-α = TNF-α release from stimulated HaCaT cells, ELISA; type: cell-based, human; details: IFN-γ 50 ng/mL, 48 hrs
# Description: (§5) HaCaT cells were maintained in T-75 cm2 flask in Dulbecco's modified Eagle medium supplemented with FBS (10%), L-glutamine (2 mM), penicillin (100 ug/ml), streptomycin (100 ug/ml) at 37° C. in 5% CO2 incubator. Cell growth was maintained to 70-80% confluence for seeding and vehicle used was 1% DMSO. The cell viability was checked at various time points using Alamar blue and fluorescence readings were taken at excitation of 544 nm and emission of 590 nm.
# (§6) HaCaT cells were stimulated with different stimulators as follows: • a. Cells were exposed to stimulator LPS at 1 μg/mL for 48 hrs to stimulate IL-1β • b. Cells were exposed to stimulator IFN-γ at 50 ng/mL for 48 hrs to stimulate TNF-α, IL-6
# (§7) After 48 hrs supernatants were collected and centrifuged to remove any cell debris and aliquots were used for ELISA.
# HaCaT cells [1] = test: Cell viability of HaCaT cells, Alamar blue; type: cell-based, human
# Description: as §5
# human PBMCs = test: Cell viability of human PBMCs, Alamar blue; type: cell-based
# Description: as §1
# HaCaT cells [2] = test: Keratinocyte (HaCaT) proliferation, MTT assay; type: cell-based, human
# Description: An experiment to check keratinocyte proliferation inhibitory activity of selected compounds of Formula-I was performed to establish its application in skin disorders related to keratinocyte hyper-proliferation. HaCaT cells, a human immortalized cell line derived from keratinocytes, representing hyper-proliferating keratinocytes was investigated for anti-proliferative potential of the selected compounds by MTT assay.
# Human IL-10 = test: IL-10 release from stimulated PBMCs, ELISA; type: cell-based; details: LPS 100 ng/mL, 18 hrs
# Description: as §1, §2, §3
# Human IFN-γ = test: IFN-γ release from stimulated PBMCs, ELISA; type: cell-based; details: LPS 100 ng/mL, 18 hrs
# Description: as §1, §2, §3
# PDE4B = PDE4B (Homo sapiens, UniProt Q07343); test: Fluorescence polarization assay PDE4B; type: biochemical; details: substrate cAMP
# Description: as §4
# IL-6 = IL-6 release from stimulated HaCaT cells, ELISA; type: cell-based, human; details: IFN-γ 50 ng/mL, 48 hrs
# Description: as §5, §6, §7
# Human IL-17A = test: IL-17A release from stimulated PBMCs, ELISA; type: cell-based; details: PMA+Ionomycin, 18 hrs
# Description: as §1, §2, §3
# Human IL-1β = test: IL-1β release from stimulated PBMCs, ELISA; type: cell-based; details: LPS 100 ng/mL, 18 hrs
# Description: as §1, §2, §3
# PDE4B, sequence (Q07343 whole entry, species assumed): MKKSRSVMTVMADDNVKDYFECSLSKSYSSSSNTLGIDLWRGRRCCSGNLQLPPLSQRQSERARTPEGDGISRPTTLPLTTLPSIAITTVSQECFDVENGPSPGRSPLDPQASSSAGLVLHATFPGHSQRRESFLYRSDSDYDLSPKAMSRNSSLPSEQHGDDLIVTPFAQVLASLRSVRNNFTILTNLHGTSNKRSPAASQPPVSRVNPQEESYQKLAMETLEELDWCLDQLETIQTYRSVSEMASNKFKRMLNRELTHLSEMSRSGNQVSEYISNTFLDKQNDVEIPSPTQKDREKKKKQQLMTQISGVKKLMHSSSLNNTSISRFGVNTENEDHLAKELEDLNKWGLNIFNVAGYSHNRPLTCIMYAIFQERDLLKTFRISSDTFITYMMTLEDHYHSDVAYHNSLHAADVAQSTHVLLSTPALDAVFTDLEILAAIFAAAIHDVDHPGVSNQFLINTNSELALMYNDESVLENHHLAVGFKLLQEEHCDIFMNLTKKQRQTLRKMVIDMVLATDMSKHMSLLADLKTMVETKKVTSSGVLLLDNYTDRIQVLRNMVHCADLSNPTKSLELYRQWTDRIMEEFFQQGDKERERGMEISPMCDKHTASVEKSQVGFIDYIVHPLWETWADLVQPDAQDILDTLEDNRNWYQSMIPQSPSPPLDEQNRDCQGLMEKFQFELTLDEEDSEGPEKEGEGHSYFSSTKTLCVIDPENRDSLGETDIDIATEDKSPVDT
# PDE1A, sequence (P54750 whole entry, species assumed): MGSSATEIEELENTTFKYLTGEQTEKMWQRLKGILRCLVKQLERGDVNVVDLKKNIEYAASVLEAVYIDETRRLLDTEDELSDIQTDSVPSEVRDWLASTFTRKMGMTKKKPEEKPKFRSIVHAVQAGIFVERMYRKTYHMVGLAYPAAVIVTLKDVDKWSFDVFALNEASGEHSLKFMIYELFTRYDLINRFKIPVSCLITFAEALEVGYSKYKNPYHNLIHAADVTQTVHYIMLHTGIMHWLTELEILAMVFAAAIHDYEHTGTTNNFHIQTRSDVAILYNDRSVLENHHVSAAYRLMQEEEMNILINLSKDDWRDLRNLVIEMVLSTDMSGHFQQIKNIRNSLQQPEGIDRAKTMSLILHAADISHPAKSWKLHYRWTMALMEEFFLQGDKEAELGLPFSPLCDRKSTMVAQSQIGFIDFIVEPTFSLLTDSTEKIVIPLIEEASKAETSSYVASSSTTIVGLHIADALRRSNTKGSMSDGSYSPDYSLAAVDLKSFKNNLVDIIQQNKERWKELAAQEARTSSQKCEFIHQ
compound,measurement,setting,value
CC(=O)Oc1ccccc1C(=O)Nc1ncc([N+](=O)[O-])s1 [Nitazoxanide],Human IL-17F concentration,Human IL-17F; 1 μM,166 pg/mL
same,Human IL-17F concentration,Human IL-17F; 10 μM,0 pg/mL
same,Human IL-17F concentration,Human IL-17F; 25 μM,0 pg/mL
same,Human IL-17F concentration,Human IL-17F; 50 μM,0 pg/mL
same,IC50,PDE1A,137 µM
same,Human IL-12 concentration,Human IL-12; 1 μM,3892 pg/mL
same,Human IL-12 concentration,Human IL-12; 10 μM,1500 pg/mL
same,Human IL-12 concentration,Human IL-12; 25 μM,406 pg/mL
same,Human IL-12 concentration,Human IL-12; 50 μM,101 pg/mL
same,TNF-α Conc.,TNF-α; 0.1 μM,3 ± 0.2 pg/mL
same,TNF-α Conc.,TNF-α; 0.5 μM,2.5 ± 0.5 pg/mL
same,TNF-α Conc.,TNF-α; 1 μM,2.3 ± 0.4 pg/mL
same,% Viability (±S.E.M.),"HaCaT cells [1]; 0.1 μM, 24 hrs",89 ± 1%
same,% Viability (±S.E.M.),"HaCaT cells [1]; 0.1 μM, 48 hrs",99 ± 9%
same,% Viability (±S.E.M.),"HaCaT cells [1]; 0.1 μM, 72 hrs",103 ± 3%
same,% Viability (±S.E.M.),"HaCaT cells [1]; 1 μM, 24 hrs",81 ± 3%
same,% Viability (±S.E.M.),"HaCaT cells [1]; 1 μM, 48 hrs",86 ± 8%
same,% Viability (±S.E.M.),"HaCaT cells [1]; 1 μM, 72 hrs",91 ± 2%
same,% Viability (±S.E.M.),"HaCaT cells [1]; 10 μM, 24 hrs",41 ± 1%
same,% Viability (±S.E.M.),"HaCaT cells [1]; 10 μM, 48 hrs",40 ± 2%
same,% Viability (±S.E.M.),"HaCaT cells [1]; 10 μM, 72 hrs",46 ± 3%
same,% Viability (±S.E.M.),"HaCaT cells [1]; 50 μM, 24 hrs",18 ± 1%
same,% Viability (±S.E.M.),"HaCaT cells [1]; 50 μM, 48 hrs",15 ± 2%
same,% Viability (±S.E.M.),"HaCaT cells [1]; 50 μM, 72 hrs",18 ± 1%
same,% Viability (±S.E.M.),"HaCaT cells [1]; 100 μM, 24 hrs",17 ± 1%
same,% Viability (±S.E.M.),"HaCaT cells [1]; 100 μM, 48 hrs",13 ± 1%
same,% Viability (±S.E.M.),"HaCaT cells [1]; 100 μM, 72 hrs",17 ± 1%
same,Concentration which exhibited cell viability of 70%,"HaCaT cells [1]; HaCaT cells, maximum concentration for stimulation study",1 µM
same,% Viability (±S.E.M.),"human PBMCs; 0.01 μM, 24 hrs",97 ± 1%
same,% Viability (±S.E.M.),"human PBMCs; 0.01 μM, 48 hrs",106 ± 8%
same,% Viability (±S.E.M.),"human PBMCs; 0.01 μM, 72 hrs",113 ± 10%
same,% Viability (±S.E.M.),"human PBMCs; 1 μM, 24 hrs",91 ± 2%
same,% Viability (±S.E.M.),"human PBMCs; 1 μM, 48 hrs",105 ± 7%
same,% Viability (±S.E.M.),"human PBMCs; 1 μM, 72 hrs",106 ± 2%
same,% Viability (±S.E.M.),"human PBMCs; 100 μM, 24 hrs",76 ± 4%
same,% Viability (±S.E.M.),"human PBMCs; 100 μM, 48 hrs",42 ± 4%
same,% Viability (±S.E.M.),"human PBMCs; 100 μM, 72 hrs",11 ± 3%
same,Concentration which exhibited cell viability of 70%,"human PBMCs; PBMCs, maximum concentration for stimulation study",50 µM
same,Cell proliferation (% of Control),"HaCaT cells [2]; 0.01 μM, 24 h",126.3 % of Control
same,Cell proliferation (% of Control),"HaCaT cells [2]; 0.01 μM, 48 h",113.7 % of Control
same,Cell proliferation (% of Control),"HaCaT cells [2]; 0.01 μM, 72 h",114.6 % of Control
same,Cell proliferation (% of Control),"HaCaT cells [2]; 0.1 μM, 24 h",114.3 % of Control
same,Cell proliferation (% of Control),"HaCaT cells [2]; 0.1 μM, 48 h",115.2 % of Control
same,Cell proliferation (% of Control),"HaCaT cells [2]; 0.1 μM, 72 h",102.4 % of Control
same,Cell proliferation (% of Control),"HaCaT cells [2]; 0.5 μM, 24 h",120.3 % of Control
same,Cell proliferation (% of Control),"HaCaT cells [2]; 0.5 μM, 48 h",113.4 % of Control
same,Cell proliferation (% of Control),"HaCaT cells [2]; 0.5 μM, 72 h",106.2 % of Control
same,Cell proliferation (% of Control),"HaCaT cells [2]; 1 μM, 24 h",123 % of Control
same,Cell proliferation (% of Control),"HaCaT cells [2]; 1 μM, 48 h",110.8 % of Control
same,Cell proliferation (% of Control),"HaCaT cells [2]; 1 μM, 72 h",101.7 % of Control
same,Cell proliferation (% of Control),"HaCaT cells [2]; 5 μM, 24 h",121.6 % of Control
same,Cell proliferation (% of Control),"HaCaT cells [2]; 5 μM, 48 h",91.8 % of Control
same,Cell proliferation (% of Control),"HaCaT cells [2]; 5 μM, 72 h",82.9 % of Control
same,Cell proliferation (% of Control),"HaCaT cells [2]; 10 μM, 24 h",103.8 % of Control
same,Cell proliferation (% of Control),"HaCaT cells [2]; 10 μM, 48 h",77 % of Control
same,Cell proliferation (% of Control),"HaCaT cells [2]; 10 μM, 72 h",69.5 % of Control
same,Cell proliferation (% of Control),"HaCaT cells [2]; 50 μM, 24 h",92.6 % of Control
same,Cell proliferation (% of Control),"HaCaT cells [2]; 50 μM, 48 h",69.6 % of Control
same,Cell proliferation (% of Control),"HaCaT cells [2]; 50 μM, 72 h",49.6 % of Control
same,Cell proliferation (% of Control),"HaCaT cells [2]; 100 μM, 24 h",89.7 % of Control
same,Cell proliferation (% of Control),"HaCaT cells [2]; 100 μM, 48 h",61 % of Control
same,Cell proliferation (% of Control),"HaCaT cells [2]; 100 μM, 72 h",33.1 % of Control
same,IC50,"HaCaT cells [2]; Homo sapiens, HaCaT, 72 h, read-out: IC50 of cell proliferation",39.9 µM
same,Human IL-10 concentration,Human IL-10; 1 μM,1799 pg/mL
same,Human IL-10 concentration,Human IL-10; 10 μM,512 pg/mL
same,Human IL-10 concentration,Human IL-10; 25 μM,76 pg/mL
same,Human IL-10 concentration,Human IL-10; 50 μM,42 pg/mL
same,Human IFN-γ concentration,Human IFN-γ; 1 μM,217 pg/mL
same,Human IFN-γ concentration,Human IFN-γ; 25 μM,152 pg/mL
same,Human IFN-γ concentration,Human IFN-γ; 50 μM,191 pg/mL
same,IC50,PDE4B,> 500 µM
same,IL-6 Conc.,IL-6; 0.1 μM,83 ± 1 pg/mL
same,IL-6 Conc.,IL-6; 0.5 μM,79 ± 4 pg/mL
same,IL-6 Conc.,IL-6; 1 μM,70 ± 4 pg/mL
same,Human IL-17A concentration,Human IL-17A; 1 μM,39 pg/mL
same,Human IL-17A concentration,Human IL-17A; 10 μM,0 pg/mL
same,Human IL-17A concentration,Human IL-17A; 25 μM,0 pg/mL
same,Human IL-17A concentration,Human IL-17A; 50 μM,0 pg/mL
same,Human IL-1β concentration,Human IL-1β; 1 μM,4470 pg/mL
same,Human IL-1β concentration,Human IL-1β; 10 μM,3971 pg/mL
same,Human IL-1β concentration,Human IL-1β; 25 μM,3203 pg/mL
same,Human IL-1β concentration,Human IL-1β; 50 μM,2506 pg/mL
